{"source": "paper PMC7187627", "about": "(Antimicrobial Agents and Chemotherapy, 2019)", "origin": "cited, not measured here", "system": "C. difficile", "design": "method as in PMID 19258353, PMID 19251726", "conditions": "in vivo model of CDI, compared with vancomycin; cited from earlier work", "data": [{"smiles": "O=c1cc(NCCCN[C@@H]2CCOc3c(Br)cc(Br)cc32)[nH]c2ccsc12", "note": "[CRS3123]", "values": [{"measurement": "protection of hamsters against recurrence", "result": "superior to vancomycin"}]}]}
